Laboratory results from US11992481B2, “Use of 2-substituted indazoles for the treatment and prophylaxis of autoimmune diseases” (Bayer Pharma Aktiengesellschaft, priority 2016, dated 2024).

Tested on: THP-1 cells
Assay: TNF-α secretion in THP-1 cells (LPS-triggered)
Assay type: cell-based
Conditions: Homo sapiens, 0.05 μg/ml LPS, 17 h, read-out: IC50 with respect to the secretion of TNF-α in THP-1 cells
Procedure: With the aid of this test, it is possible to test substances for their ability to inhibit secretion of TNF-α (tumour necrosis factor alpha) in THP-1 cells (human monocytic acute leukaemia cell line). […] In this test, TNF-α secretion is triggered by incubation with bacterial lipopolysaccharide (LPS).
The cells were incubated at room temperature for 15 min. 2-2.5 μl of 0.1 μg/ml LPS (Sigma, Escherichia coli 055:B5, Cat. No. L5418) dissolved in cell culture medium (final concentration 0.05 μg/ml) were then dispensed into each well. As neutral control, cells were treated with 0.05 μg/ml LPS and 1% DMSO and, as inhibitor control, with 1% DMSO only.
The amount of TNF-α was determined using the TNF-alpha HTRF Detection Kit (Cisbio, Cat. No. 62TNFPEB/C). To this end, 2 μl of the detection solution in each case, consisting of anti-TNF-α-XL665 conjugate and anti-TNF-α-cryptate conjugate dissolved in the reconstitution buffer in accordance with the manufacturer's instructions, were added for the HTRF (Homogeneous Time-Resolved Fluorescence) test. After the addition, the mixture was incubated either at room temperature for 3 h or at 4° C. overnight.
The activity of the substances is expressed as the ratio between neutral and inhibitor control in percent. The IC50 values were calculated using a 4-parameter fit.

Row | IC50 [nM] | SMILES
1 | 6.5 | O=C(Nc1cc2cn(CC3COC3)nc2cc1CO)c1cccc(C(F)(F)F)n1 [Example 9, N-[6-(Hydroxymethyl)-2-(oxetan-3-ylmethyl)-2H-indazol-5-yl]-6-(trifluoromethyl)pyridine-2-carboxamide]
2 | 0.3 | CC(C)(O)c1cc2nn(CCCOCC(F)(F)F)cc2cc1NC(=O)c1cccc(C(F)(F)F)n1 [Example 18, N-{6-(2-Hydroxypropan-2-yl)-2-[3-(2,2,2-trifluoroethoxy)propyl]-2H-indazol-5-yl}-6-(trifluoromethyl)pyridine-2-carboxamide]
3 | 0.2 | CC(C)(O)c1cc2nn(CCCC(F)(F)F)cc2cc1NC(=O)c1cccc(C(F)(F)F)n1 [Example 16, N-[6-(2-Hydroxypropan-2-yl)-2-(4,4,4-trifluorobutyl)-2H-indazol-5-yl]-6-(trifluoromethyl)pyridine-2-carboxamide]
4 | 0.5 | CC(C)(O)c1cc2nn(CCCOC(F)(F)F)cc2cc1NC(=O)c1cccc(C(F)(F)F)n1 [Example 17, N-{6-(2-Hydroxypropan-2-yl)-2-[3-(trifluoromethoxy)propyl]-2H-indazol-5-yl}-6-(trifluoromethyl)pyridine-2-carboxamide]
5 | 15.1 | COCCn1cc2cc(NC(=O)c3cccc(C(F)(F)F)n3)c(CO)cc2n1 [Example 2, N-[6-(Hydroxymethyl)-2-(2-methoxyethyl)-2H-indazol-5-yl]-6-(trifluoromethyl)pyridine-2-carboxamide]
6 | 0.2 | CC(C)(O)c1cc2nn(CCS(C)(=O)=O)cc2cc1NC(=O)c1cccc(C(F)F)n1 [Example 14, 6-(Difluoromethyl)-N-{6-(2-hydroxypropan-2-yl)-2-[2-(methylsulphonyl)ethyl]-2H-indazol-5-yl}pyridine-2-carboxamide]
7 | 0.1 | Cc1nc(C(=O)Nc2cc3cn(CCC(C)(C)O)nc3cc2C(C)(C)O)ccc1F [Example 19, 5-Fluoro-N-[2-(3-hydroxy-3-methylbutyl)-6-(2-hydroxypropan-2-yl)-2H-indazol-5-yl]-6-methylpyridine-2-carboxamide]
8 | 1 | COCCn1cc2cc(NC(=O)c3cccc(C(F)(F)F)n3)c(C(C)(C)O)cc2n1 [Example 1, N-[6-(2-Hydroxypropan-2-yl)-2-(2-methoxyethyl)-2H-indazol-5-yl]-6-(trifluoromethyl)pyridine-2-carboxamide]
9 | 0.9 | CC(C)(O)c1cc2nn(CCCO)cc2cc1NC(=O)c1cccc(C(F)(F)F)n1 [Example 6, N-[6-(2-Hydroxypropan-2-yl)-2-(3-hydroxypropyl)-2H-indazol-5-yl]-6-(trifluoromethyl)pyridine-2-carboxamide]
10 | 1.8 | CC(C)(O)c1cccc(C(=O)Nc2cc3cn(CCCC(F)(F)F)nc3cc2C(C)(C)O)n1 [Example 21, 6-(2-Hydroxypropan-2-yl)-N-[6-(2-hydroxypropan-2-yl)-2-(4,4,4-trifluorobutyl)-2H-indazol-5-yl]pyridine-2-carboxamide]
11 | 5.4 | CC(C)(O)c1cc2nn(CCO)cc2cc1NC(=O)c1cccc(C(F)(F)F)n1 [Example 5, N-[2-(2-Hydroxyethyl)-6-(2-hydroxypropan-2-yl)-2H-indazol-5-yl]-6-(trifluoromethyl)pyridine-2-carboxamide]
12 | 0.2 | CC(C)(O)c1cc2nn(CCCO)cc2cc1NC(=O)c1cccc(C(F)F)n1 [Example 15, 6-(Difluoromethyl)-N-[6-(2-hydroxypropan-2-yl)-2-(3-hydroxypropyl)-2H-indazol-5-yl]pyridine-2-carboxamide]
13 | 0.1 | CC(C)(O)CCn1cc2cc(NC(=O)c3cccc(C(F)F)n3)c(C(C)(C)O)cc2n1 [Example 13, 6-(Difluoromethyl)-N-[2-(3-hydroxy-3-methylbutyl)-6-(2-hydroxypropan-2-yl)-2H-indazol-5-yl]pyridine-2-carboxamide]
14 | 1 | CC(C)(O)c1cc2nn(CCCS(C)(=O)=O)cc2cc1NC(=O)c1cccc(C(F)(F)F)n1 [Example 10, N-{6-(2-Hydroxypropan-2-yl)-2-[3-(methylsulphonyl)propyl]-2H-indazol-5-yl}-6-(trifluoromethyl)pyridine-2-carboxamide]
15 | 1 | CC(C)(O)c1cc2nn(CC3COC3)cc2cc1NC(=O)c1cccc(C(F)(F)F)n1 [Example 8, N-[6-(2-Hydroxypropan-2-yl)-2-(oxetan-3-ylmethyl)-2H-indazol-5-yl]-6-(trifluoromethyl)pyridine-2-carboxamide]
16 | 5.6 | COCCCn1cc2cc(NC(=O)c3cccc(C(F)(F)F)n3)c(CO)cc2n1 [Example 4, N-[6-(Hydroxymethyl)-2-(3-methoxypropyl)-2H-indazol-5-yl]-6-(trifluoromethyl)pyridine-2-carboxamide]
17 | 0.2 | Cc1cccc(C(=O)Nc2cc3cn(CCC(C)(C)O)nc3cc2C(C)(C)O)n1 [Example 20, N-[2-(3-Hydroxy-3-methylbutyl)-6-(2-hydroxypropan-2-yl)-2H-indazol-5-yl]-6-methylpyridine-2-carboxamide]
18 | 16.4 | O=C(Nc1cc2cn(CCO)nc2cc1CO)c1cccc(C(F)(F)F)n1 [Example 7, N-[2-(2-Hydroxyethyl)-6-(hydroxymethyl)-2H-indazol-5-yl]-6-(trifluoromethyl)pyridine-2-carboxamide]
